Assay results taken from patent publication US4264600A (priority 1979, dated 1981).
In brackets after ≈: the same amount, converted by molar mass. Like-named read-outs stand apart in the source and are kept apart here.

Assays:
Herpes simplex = test: in vitro plaque suppression test, Herpes simplex; type: cell-based, Herpes simplex virus
[1] = test system: Ann Arbor or Maryland B strains of influenza virus; test: in vivo survival of mice infected with influenza virus; parameters: species or system White Swiss female mice, McAllister strain; details: for minimal effective dose: read-out: in vivo dose at which there was a statistically significant increase in survival
Method: In vivo activity was determined as follows: White Swiss female mice (11-13 g.) McAllister strain were infected with aqueous dilutions of Ann Arbor or Maryland B strains of influenza virus in an air borne injection apparatus. Graded dose levels of the drug were injected intraperitoneally (IP) or administered orally by gavage 24 and 4 hours preinfection and 24 and 48 hours postinfection. Date of death was determined. The drug was administered in water containing 2% of a surfactant. In Table 1, column 7, a dosage level for each drug is given at which there was a statistically significant increase in survival and column 6 gives the route of administration.

Echo 10 = test: in vitro plaque suppression test, Echo 10; type: cell-based, Echo 10 virus; details: Echo 10, in vitro
[2] = test system: Maryland B influenza virus; test: in vitro plaque inhibition, Maryland B influenza virus; type: cell-based; details: for IC50: unidentified influenza virus, in Chlorocebus sabaeus, 72 h, read-out: I50, amount of drug which inhibits 50% of the plaques
Vaccinia = type: cell-based, Vaccinia virus; details: in vitro
[3] = rats, 100 mg/kg
[4] = compared with 6,7-dichloro congener
[5] = dogs, 30-60 mg/kg
Polio III = type: cell-based, Polio III virus; details: in vitro
[6] = test system: Ann Arbor influenza virus; test: in vitro plaque inhibition, Ann Arbor influenza virus; type: cell-based; details: for IC50: unidentified influenza virus, in Chlorocebus sabaeus, 72 h, read-out: I50, amount of drug which inhibits 50% of the plaques
[7] = route IP, 24 and 4 hours preinfection and 24 and 48 hours postinfection
[8] = route IP, OR, 24 and 4 hours preinfection and 24 and 48 hours postinfection
[9] = increased to 60 mg/day for 7 days
[10] = nasogastric gavage, 30 mg/day for 14 days

## Ethyl 6-methoxy-5-nitro-3,4-dihydro-3-oxo-2-quinoxaline Carboxylate and Ethyl 7-Methoxy-8-nitro-3,4-dihydro-3-oxo-2-quinoxaline Carboxylate
Herpes simplex
  Activity level (dose level at which activity was found): 2000 µg/mg
[1]; [7]
  in vivo dose at which there was a statistically significant increase in survival: 80 mg/kg
Echo 10
  Activity level (dose level at which activity was found): 2000 µg/mg

## ethyl 6(7)-nitro-3,4-dihydro-3-oxo-2-quinoxaline carboxylate
[1]; [7]
  in vivo dose at which there was a statistically significant increase in survival: 80 mg/kg
[2]; Maryland B influenza virus, in vitro, 72 hours at 37° C.
  I50, amount of drug which inhibits 50% of the plaques: 40 µg/mL
Vaccinia
  Activity level (dose level at which activity was found): 2000 µg/mg

## CCOC(=O)c1nc2cc(Br)c(Br)cc2[nH]c1=O [M]
[1]; [8]
  minimal effective dose: 40 to 80 mg/kg
[3]
  degree of hepatotoxicity (both drugs): equal, though minor
  degree of nephrotoxicity (both drugs): equal, though minor
[4]
  toxicity in monkeys relative to its 6,7-dichloro congener: much less toxic
[5]
  degree of hepatotoxicity (both drugs): equal, though minor
  degree of nephrotoxicity (both drugs): equal, though minor

## Ethyl 6(7)-Chloro-7(6)-bromo-3,4-dihydro-3-oxo-2-quinoxalineCarboxylate
[1]; [7]
  in vivo dose at which there was a statistically significant increase in survival: 80 mg/kg
Vaccinia
  Activity level (dose level at which activity was found): 2000 µg/mg
Polio III
  Activity level (dose level at which activity was found): 2000 µg/mg

## C=CCOC(=O)c1nc2cc(Cl)c(Cl)cc2[nH]c1=O [K]
[2]
  IC50: 33 µg/mL (≈ 110 µM)
[6]
  IC50: 75 µg/mL (≈ 251 µM)

## O=C(OCC1CCC1)c1nc2cc(Cl)c(Cl)cc2[nH]c1=O [L, Cyclobutylmethyl 6,7-Dichloro-3,4-dichloro-3-oxo-2-quinoxaline Carboxylate]
[2]
  IC50: 15 µg/mL (≈ 45.8 µM)
[6]
  IC50: 20 µg/mL (≈ 61.1 µM)

## CCOC(=O)c1nc2cc(I)c(I)cc2[nH]c1=O [F, Ethyl 6,7-Diiodo-3,4-dihydro-3-oxo-2-quinoxaline Carboxylate]
[1]
  minimal effective dose: 80 mg/kg
[6]; Ann Arbor influenza virus, in vitro
  Ann Arbor influenza virus in vitro activity (in words): Active

## COC(=O)c1nc2cc(Cl)c(Cl)cc2[nH]c1=O [C]
[1]; ip
  minimal effective dose: 60 mg/kg
[2]
  IC50: < 10 µg/mL

## O=C(O)c1nc2cc(Cl)c(Cl)cc2[nH]c1=O [E]
[1]; ip
  minimal effective dose: 50 mg/kg
[2]
  IC50: < 71 µg/mL
[6]
  IC50: < 100 µg/mL

## CCOC(=O)c1nc2cc(Cl)c(Cl)cc2[nH]c1=O [D]
30 then 60 mg/day
  blood urea nitrogen: elevated
  creatinine levels: elevated
  kidney damage: evidence of kidney damage
[9]
  AP: remain elevated
  SGPT: returned to normal
[10]
  AP: moderate increases
  SGPT: moderate increases
  liver damage (from AP and SGPT): suggestive of liver damage
[1]; [8]
  minimal effective dose: 40 mg/kg
[3]
  degree of hepatotoxicity (both drugs): equal, though minor
  degree of nephrotoxicity (both drugs): equal, though minor
[2]
  IC50: 38 µg/mL (≈ 132 µM)
[5]
  degree of hepatotoxicity (both drugs): equal, though minor
  degree of nephrotoxicity (both drugs): equal, though minor

## Ethyl 6-Nitro-8-chloro-3,4-dihydro-3-oxo-2-quinoxaline carboxylate and Ethyl 7-Nitro-5-chloro-3,4-dihydro-3-oxo-2-quinoxaline Carboxylate [S]
Herpes simplex
  Activity level (dose level at which activity was found): 2000 µg/mg
[1]; [7]
  in vivo dose at which there was a statistically significant increase in survival: 80 mg/kg
Echo 10
  Activity level (dose level at which activity was found): 2000 µg/mg
Vaccinia
  Activity level (dose level at which activity was found): 2000 µg/mg

## O=C(O)CCc1nc2cc(Cl)c(Cl)cc2[nH]c1=O [B]
[1]; ip
  minimal effective dose: 50 mg/kg

## O=C(OCCCl)c1nc2cc(Cl)c(Cl)cc2[nH]c1=O [J]
[2]
  IC50: 58 µg/mL (≈ 180 µM)
[6]
  IC50: 76 µg/mL (≈ 236 µM)

## CCCCOC(=O)c1nc2cc(Cl)c(Cl)cc2[nH]c1=O [G]
[2]
  IC50: 38 µg/mL (≈ 121 µM)
